Measured values as given in ChEMBL document CHEMBL1156829 (Proc Natl Acad Sci U S A, 2008).

Experiments:
Plasmodium falciparum [1] = experiment: NOVARTIS: Inhibition of Plasmodium falciparum 3D7 (drug-susceptible) proliferation in erythrocyte-based infection assay; assay type: functional, organism-based; settings: Plasmodium falciparum, 3D7
Plasmodium falciparum [2] = experiment: NOVARTIS: Inhibition of Plasmodium falciparum W2 (drug-resistant) proliferation in erythrocyte-based infection assay; assay type: functional, organism-based; settings: Plasmodium falciparum, W2; read-out: EC50
[3] = NOVARTIS: Cytotoxicity against human hepatocellular carcinoma cell line (Huh7); assay type: toxicity, cell-based, Huh-7; settings: Huh7 cells (hepatocellular carcinoma cell line)

Structure (SMILES)	EC50 (Plasmodium falciparum [1])	EC50 (Plasmodium falciparum [2])	CC50 [3]
CN(C)CCCNc1c2ccccc2nc2ccccc12	32.7 nM	387 nM	8450 nM
Cc1cc(C)cc(-n2c(C)cc(/C=C3\SC(=Nc4ccc(Br)cc4)NC3=O)c2C)c1	2580 nM	4450 nM	> 100000 nM
c1ccc(-c2nc(NCCCn3ccnc3)cc(-c3ccncc3)n2)cc1	238 nM	458 nM	> 10000 nM
CN(C)CCn1c(=N)n(CC(O)c2ccc(Cl)c(Cl)c2)c2ccccc21 (configuration not stated)	256 nM	457 nM	> 10000 nM
O=C(Cn1c2ccccc2c(=O)c2ccc(Cl)cc21)Nc1ccc(C(F)(F)F)cc1	9870 nM	4540 nM	> 100000 nM
CCSC1=CC(=O)c2ccccc2C1=O	551 nM	230 nM	5170 nM
CC(NS(=O)(=O)c1ccccc1)C(=O)NC1CCCC1 (configuration not stated)	> 4320 nM	4620 nM	> 100000 nM
CCOC(=O)c1ccc2nc3c(nc2c1)C(=O)c1ccccc1C3=O	26.7 nM	23.6 nM	512 nM
N=c1n(CCN2CCCCC2)c2ccccc2n1CC(O)COc1ccc(Cl)cc1 (configuration not stated)	521 nM	279 nM	6270 nM
COc1ccccc1NC1=CC(=NS(=O)(=O)c2cccs2)c2ccccc2C1=O	1070 nM	906 nM	19700 nM
CN(C)c1cc[n+](OC(=O)N2CCCCC2)cc1	133 nM	> 455 nM	> 10000 nM
CCOc1ccc(Nc2nc(NCc3ccco3)c3ccccc3n2)cc1	288 nM	528 nM	11600 nM
Brc1ccc(-c2cn3c([n+]2Cc2ccccc2)SCCC3)cc1	413 nM	2450 nM	53300 nM
CN(CCCNc1ccnc2cc(Cl)ccc12)C(=O)c1cc(Cl)cc(Cl)c1	235 nM	460 nM	> 10000 nM
CCCCCCCc1ccc(-c2nnc(-c3ccc([N+](=O)[O-])cc3)o2)cc1	> 1250 nM	> 459 nM	> 10000 nM
CCOC(=O)C1=C(C)N(c2ccc(N(C)C)cc2)C(C)=C(C(=O)OCC)C1c1ccc(Br)cc1	> 1130 nM	896 nM	19600 nM
CCC(C)NC(=O)C1CSC(c2cccc(F)c2)N1C(=O)c1cc(OC)c(OC)c(OC)c1 (configuration not stated)	> 1250 nM	29.8 nM	> 654 nM
Cn1nc(C(=O)NCc2ccc(F)cc2)c2c1CCC(N1CCC(CO)CC1)C2 (configuration not stated)	> 1250 nM	> 454 nM	> 10000 nM
CCOC(=O)C1(CC2CCCCO2)CCN(C(=O)Nc2cccc(SC)c2)CC1 (configuration not stated)	> 12500 nM	4530 nM	> 100000 nM
COc1ccc(S(=O)(=O)N=C2C=C(Nc3ccc(O)cc3)C(=O)c3ccccc32)cc1	185 nM	109 nM	2450 nM
N#CC(=CC=Cc1ccc([N+](=O)[O-])o1)c1nc2ccccc2[nH]1	381 nM	387 nM	8690 nM
CCN(CC)c1ccc(NC(=O)C2Cc3ccccc3CN2S(=O)(=O)c2ccc(F)cc2)cc1 (configuration not stated)	7430 nM	4530 nM	> 100000 nM
CC(=O)Nc1ccc2nc(C)sc2c1	> 1250 nM	> 445 nM	> 10000 nM
Cc1ccccc1C(=O)N1CCC(n2nccc2NC(=O)CCOc2ccccc2)CC1	> 12500 nM	4450 nM	> 100000 nM
O=C(NCCCCNc1ccnc2cc(Cl)ccc12)c1cccc(Br)c1	422 nM	453 nM	> 10000 nM
Cc1ccc(C)c(Nc2nc3c(s2)CCCC3)c1	> 12500 nM	4500 nM	> 100000 nM
COC(=O)C1=CNC=C(C(=O)OC)C1c1cc(OC)c(OC)c(OC)c1	8990 nM	4500 nM	> 100000 nM

Structure (SMILES)	EC50 (Plasmodium falciparum [1])	EC50 (Plasmodium falciparum [2])	CC50 [3]
CCn1cc(C(=O)NCCC2=CCCCC2)c(=O)c2cc(S(=O)(=O)N(C)C)ccc21	> 1250 nM	> 449 nM	> 10000 nM
O=C1N(c2ccccc2)C[C@@H]2C[C@@H](c3ccc(C#CCCO)cc3)N3CCC[C@@]123	832 nM	757 nM	16800 nM
O=C(C1CCN(C(c2ccc(F)cc2)c2ccc(F)cc2)CC1)N1CCCC1	> 586 nM	447 nM	> 10000 nM
c1csc(CN2CCc3nc(N4CCCCC4)sc3C2)c1	1260 nM	446 nM	> 10000 nM
O=C(C=Cc1ccccc1)c1c(-c2ccccc2)c2cc([N+](=O)[O-])ccc2[nH]c1=O	> 9370 nM	> 4460 nM	> 100000 nM
COC(=O)c1ccccc1NC(=O)CN(C)c1nc(-c2ccc(OC)cc2)no1	786 nM	449 nM	> 10000 nM
CCCN1CCC(N2CCCC(c3[nH]ncc3-c3cccc(C(F)(F)F)c3)C2)CC1 (configuration not stated)	757 nM	448 nM	> 10000 nM
CCc1ccc(CN2CCC(O)(c3ccc4oc(C(=O)Nc5ccc6c(c5)OCO6)cc4c3)CC2)cc1	359 nM	460 nM	10300 nM
CC[N+](C)(CC)CCSc1nc2ccccc2c(=S)n1-c1ccc(OC)cc1	285 nM	451 nM	> 10000 nM
CCCCNCCOCCOc1ccc(Br)cc1	> 11700 nM	1610 nM	35700 nM
CC(C)N(CC(=O)Nc1cc(C(C)(C)C)nn1-c1ccc(Cl)cc1)C(=O)c1ccc(C(C)(C)C)cc1	9960 nM	4480 nM	> 100000 nM
CN(Cc1cc2ccc(F)cc2n(CCN2CCCCC2)c1=O)CC1COCCO1 (configuration not stated)	> 12500 nM	4620 nM	> 100000 nM
CCOc1cccc2oc(=O)c(C(=O)Nc3cc(C(C)(C)C)on3)cc12	> 11700 nM	> 4620 nM	> 100000 nM
CCN1CCN(c2cc(C)c3cc(NC(=O)c4cc(OC)cc(OC)c4)ccc3n2)CC1	183 nM	587 nM	12900 nM
C=C[C@H]1CN2CC[C@H]1C[C@H]2[C@H](OC(=O)CCCC)c1ccnc2ccccc12	942 nM	452 nM	> 10000 nM
C/C(Cl)=C/C[N+]1(CC#Cc2cccc3ccccc23)CCOCC1	672 nM	449 nM	> 10000 nM
Cc1ccc(Cl)cc1Nc1nc2ccccc2n2c(C)nnc12	> 12500 nM	4470 nM	> 100000 nM
CCN(C(C)=O)C1=C(N2CCOCC2)C(=O)c2ccccc2C1=O	168 nM	185 nM	4090 nM
O=C(CN1CCCC1)Nc1c2c(nc3c1CCC3)CCC2	> 1250 nM	> 462 nM	> 10000 nM
CCOC(=O)C1=C(c2ccccc2)N=c2sc(=Cc3c(C)n(Cc4ccc(F)cc4)c4ccccc34)c(=O)n2C1c1cccc(OC)c1OC (configuration not stated)	1130 nM	4620 nM	> 100000 nM
CCc1ccc(N(C(=O)CCN2CCc3ccccc32)C(C(=O)NCc2ccccc2)c2ccc(OC)c(OC)c2)cc1 (configuration not stated)	5080 nM	4450 nM	> 100000 nM
N#C/C(=C\c1cn(Cc2ccccc2Cl)c2ccccc12)c1nn(CCO)c(N)c1C#N	500 nM	450 nM	> 10000 nM
O=C(c1cc2nc(-c3ccccc3)cc(C(F)(F)F)n2n1)N1CCN(Cc2ccccc2)CC1	2920 nM	4590 nM	> 100000 nM
CN1CCC(N2CCC(Oc3cccc(C(=O)NCCC4=CCCCC4)c3)CC2)CC1	780 nM	944 nM	20700 nM
O=C(c1ccc2ccccc2c1)N1CCc2ccccc21	3500 nM	4570 nM	> 100000 nM
Cc1ccc(S(=O)(=O)Oc2ccc(C=NN=C(N)N)cc2)cc1	155 nM	631 nM	14100 nM
C[n+]1cc(-c2ccc3cccc([N+](=O)[O-])c3n2)cc2ccccc21	364 nM	450 nM	> 10000 nM
